Experimental data as given in patent US20250163113A1, “PEPTIDES TARGETING THE INTERACTION BETWEEN KINDLIN-1 AND Beta-INTEGRIN” (INSTITUT CURIE, priority 2022, published 2025).
Residues, ends and D or L forms follow the SMILES beside them.

Key:
[1] = system: triple negative breast cancer PDX; assay: Triple negative breast cancer patient derived xenograft (PDX) model; format: in vivo; conditions: nude mice, 10 mg/Kg intraperitoneal 5 days per week
Experimental: FIG. 6: Kindpep1 reduces the metastatic spread in a breast cancer PDX model. A. Diagram presenting the course of the experiment. B Quantification of the number of metastatic nodules found in the lungs of control and Kindpep1 treated mice. Mean±SEM are represented. Statistical analyses were performed by a t-test.
The triple negative breast cancer PDX model expressing high levels of Kindlin-1 was obtained from the Laboratoire d'Investigation Pré-clinique. Informed consent was obtained from patient before xenograft establishment. When tumor reached a volume of 60 to 200 mm^3, mice were randomly assigned to the control or treated group. Kindpep1 was administrated by intraperitoneal injection at a dose of 10 mg/kg 5 times a week. The vehicle alone (Nacl 0.9%) was administered to the control group following the same treatment regimen as with the drug. The control and treated group consisted of 10 mice each.
Then, a triple negative breast cancer patient derived xenograft (PDX) model previously characterized as highly metastatic and presenting high expression levels of Kindlin-1 was chosen. Tumor fragments were grafted into the interscapular fat pad of female nude immunodeficient mice and 5 days later the treatment started. […] The treatment was administered by intraperitoneal injections 5 days per week and tumor growth was monitored until reaching the ethical size, i.e. 2 cm^3 (FIG. 6A). […]

[2] = system: H358 lung cancer cell line; assay: NCI-H358 KRAS-dependent lung cancer xenograft mouse model; format: in vivo; conditions: 10 mg/Kg intraperitoneal 5 days per week
Experimental: FIG. 9: Kindpep decreases tumor growth of KRAS-dependent tumors in vivo. A. Diagram presenting the course of the experiment. B. Scatter plot showing the tumor volume of the different mice of the control and Kindpep1 treated groups, at the end of the treatment. Mean±SD are represented (*p<0.05). C. Graph monitoring tumor growth of control and Kindpep1 treated mice during the course of the experiment. Mean±SD are represented.
NCI-H358 model: 1×10^5 cells were injected subcutaneously in the flanks of 6-week old female BALB/c mice (n=10 mice for each control and treated groups). Tumor volume was measured with caliper 3 times a week. […] Tumor volumes were calculated as: Volume (cm^3)=a×b^2/2 (a and b are the two registered perpendicular diameters a>b). Tumor growth inhibition (TGI) was calculated using the following formula [1−(Vft−V0t)/(Vfc−V0c))]*100 where Vft=final volume of the treated group (at the end of the treatment); Vot=initial volume of the treatment group (at the beginning of the treatment); Vfc=final volume of the control group (at the end of the treatment); V0c=initial volume of the control group (at the beginning of the treatment).
Finally, inventors wanted to validate in vivo the impact of Kindpep1 treatment in KRAS-dependent tumors. […] The treatment was administered by intraperitoneal injections 5 days per week and tumor growth was monitored for 50 days (FIG. 9A).

4T1-luc cells = assay: 4T1-luc metastatic breast cancer model in BALB/c mice; format: in vivo; conditions: BALB/c mice, 2, 10 or 50 mg/kg, 7 day per week during 10 days
Text: FIG. 5: Kindpep1 reduces tumor growth and metastatic spread in breast cancer in vivo. A. Diagram presenting the course of the experiment. B. Corresponding relative tumor growth graph to bioluminescence images of tumors at day 25. C. Corresponding graph showing the quantification of the total area of metastatic nodules found in the different groups of mice to bioluminescence images of metastasis at day 25. Area ph/s/group stands for area photon/second/group.
4T1-luc model: 1×10^5 4T1-luc cells were inoculated subcutaneously in the flanks of 6-week old female BALB/c mice (n=28). Eleven days after tumor cell inoculation, […] mice were randomly assigned to receive intraperitoneal injection of Kindpep1 (2, 10 or 50 mg/kg) or placebo (PBS). The tumor growth and the progression of metastatic lesions were also weekly monitored by bioluminescence imaging of animals using the Nightowl imaging system. On day 25 after tumor cell inoculation, anesthetized mice were sacrificed by cervical dislocation.
These observations prompted the investigation of the effects of Kindpep1 in vivo. […] Thus, the effects of Kindpep1 on tumor dissemination in a metastatic breast cancer model was studied. 4T1 cells were used because they have a high Kindlin-1 expression and have been also described to form lung metastasis in vivo. […]

β1-integrin = molecular target: T1, β1-integrin (Homo sapiens, UniProt P05556); assay: Flow cytometry of cell-surface active β1-integrin (9EG7) in MDA MB 231 cells; format: cell-based; conditions: MDA MB 231, 2 mM MnCl2, positive control
T1 construct: endogenous in cells; host or cells: MDA MB 231 human breast cancer cells
T1 sequence (P05556 21-798): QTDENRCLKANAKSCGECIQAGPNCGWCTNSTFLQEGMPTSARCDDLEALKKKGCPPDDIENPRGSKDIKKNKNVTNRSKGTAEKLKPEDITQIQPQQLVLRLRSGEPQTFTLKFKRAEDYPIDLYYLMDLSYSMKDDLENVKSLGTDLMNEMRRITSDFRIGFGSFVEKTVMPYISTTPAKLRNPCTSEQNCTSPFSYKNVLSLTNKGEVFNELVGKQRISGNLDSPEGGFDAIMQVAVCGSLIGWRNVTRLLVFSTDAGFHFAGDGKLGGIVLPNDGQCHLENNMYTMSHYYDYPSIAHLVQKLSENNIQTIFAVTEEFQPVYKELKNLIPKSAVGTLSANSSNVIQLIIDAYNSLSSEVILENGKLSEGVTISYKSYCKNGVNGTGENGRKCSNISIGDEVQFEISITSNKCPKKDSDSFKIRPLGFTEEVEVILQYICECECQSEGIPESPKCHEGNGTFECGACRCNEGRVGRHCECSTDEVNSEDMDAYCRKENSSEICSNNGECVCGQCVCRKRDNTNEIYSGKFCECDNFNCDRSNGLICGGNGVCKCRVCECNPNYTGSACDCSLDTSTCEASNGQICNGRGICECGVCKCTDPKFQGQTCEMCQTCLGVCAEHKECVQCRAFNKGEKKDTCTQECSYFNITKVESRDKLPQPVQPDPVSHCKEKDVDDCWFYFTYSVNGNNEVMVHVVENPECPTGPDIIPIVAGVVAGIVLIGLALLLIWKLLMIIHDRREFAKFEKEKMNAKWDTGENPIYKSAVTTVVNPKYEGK
Experimental: FIG. 3: Kindpep1 reduces β1-integrin activation. Fluorescence activated sorter (FACS) histograms (top) and the corresponding bar graphs showing the mean fluorescence intensity (MFI) of cell-surface active β-1 integrin (9EG7 staining) of MDA MB 231 cells untreated, treated with Kindpep1 (200 μM) for 15 h or treated with 2 mM MnCl2.
To quantify the expression levels of integrins, cultured cells were trypsinized, washed and incubated for 1 h at 4° C. in phosphate-buffered saline (PBS) containing 150 mM NaCl and 1% BSA with the rat anti-1 integrin (9EG7 clone, 1:300) primary antibodies obtained from BD Biosciences. Cells were then washed 3 times, incubated with Alexa Fluor 488-conjugated secondary antibody for 1 h at 4° C. and washed. 1×10^4 cells were analyzed on a FACS Calibur. The mean fluorescence intensity of each sample was obtained using the Flowing software 2.
The effect of Kindpep1 on β1-integrin activation was confirmed by performing the same immunofluorescence assays using the human breast cancer cell line MDA MB 231, characterized by a high Kindlin-1 protein endogeneous expression.

[3] = molecular target: β1-integrin of 168FARN mouse breast cancer cells (endogenous) (mouse) (UniProt P09055); assay: cell-based or functional assay
Sequence of β1-integrin of 168FARN mouse breast cancer cells (endogenous) (mouse) (P09055 21-798): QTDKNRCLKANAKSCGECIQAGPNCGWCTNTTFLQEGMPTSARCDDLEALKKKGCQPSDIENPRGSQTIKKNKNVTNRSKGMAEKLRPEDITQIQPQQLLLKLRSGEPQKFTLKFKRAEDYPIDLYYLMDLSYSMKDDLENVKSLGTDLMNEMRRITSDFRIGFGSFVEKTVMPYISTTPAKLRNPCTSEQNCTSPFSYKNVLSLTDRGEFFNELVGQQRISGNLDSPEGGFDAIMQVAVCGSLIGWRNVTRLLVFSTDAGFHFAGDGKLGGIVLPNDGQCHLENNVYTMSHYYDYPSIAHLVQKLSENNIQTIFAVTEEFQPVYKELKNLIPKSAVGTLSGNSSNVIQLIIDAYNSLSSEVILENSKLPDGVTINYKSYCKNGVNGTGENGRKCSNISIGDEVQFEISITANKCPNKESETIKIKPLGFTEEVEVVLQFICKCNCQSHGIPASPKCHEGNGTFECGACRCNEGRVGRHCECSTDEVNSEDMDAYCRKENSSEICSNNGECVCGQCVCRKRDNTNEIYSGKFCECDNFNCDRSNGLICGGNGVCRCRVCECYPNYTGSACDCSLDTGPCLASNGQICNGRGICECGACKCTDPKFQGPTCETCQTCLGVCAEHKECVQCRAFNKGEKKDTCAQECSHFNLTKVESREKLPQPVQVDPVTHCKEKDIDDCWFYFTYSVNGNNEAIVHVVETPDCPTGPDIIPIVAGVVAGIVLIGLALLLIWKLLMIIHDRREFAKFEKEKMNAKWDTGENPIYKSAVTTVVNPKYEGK

Compound: CC[C@H](C)[C@H](NC(=O)[C@H](CCCCN)NC(=O)[C@H](CCCCN)NC(=O)[C@H](CCCCN)NC(=O)[C@H](CCCCN)NC(=O)[C@@H](N)C(C)C)C(=O)N[C@@H](CCCCN)C(=O)N[C@@H](C)C(=O)N[C@@H](CCC(=O)O)C(=O)N[C@H](C(=O)N[C@@H](CCCCN)C(=O)N[C@H](C(=O)N[C@@H](CO)C(=O)N[C@@H](Cc1ccccc1)C(=O)N[C@@H](CC(C)C)C(=O)N[C@@H](CCCNC(=N)N)C(=O)N[C@@H](CCSC)C(=O)N[C@@H](CCCCN)C(=O)N[C@@H](CC(N)=O)C(=O)N[C@@H](CCCNC(=N)N)C(=O)N[C@@H](CC(N)=O)C(=O)N[C@@H](CO)C(=O)N[C@@H](C)C(=O)N[C@@H](CO)C(=O)N[C@@H](CCC(N)=O)C(=O)N[C@H](C(=O)N[C@@H](C)C(=O)N[C@@H](CO)C(=O)N[C@@H](CO)C(=O)N[C@@H](CC(C)C)C(=O)O)C(C)C)[C@@H](C)CC)[C@@H](C)CC [Kindpep1] (H-VKKKKIKAEIKISFLRMKNRNSASQVASSL-OH)
- death during the treatment [1]: no death was observed
- side effects [1]: no side effects were detected
- toxicities in nude mice [2]: without apparent toxicities
- death during the treatment (4T1-luc cells): no death was observed
- side effects (4T1-luc cells): no any side effects was detected

Compound: [Cl][Mn][Cl] [MnCl2]
- levels of active β1-integrin on the cell surface (flow cytometry, 9EG7) (β1-integrin): increase levels of active β1-integrin

Compound: wild-type Kindlin-1 expressed in 168FARN cells (from UniProt Q9BQL6 1-677)
- velocity of cell migration of 168FARN cells in 3D collagen matrix (time-lapse tracking) [3]: 3.8 fold
